Results published in patent US20240310360A1, “METHOD OF […] RESPONSE OF CELL GROUP TO TEST SUBSTANCE” (CANON KABUSHIKI KAISHA, priority 2023, published 2024).
Read-outs that look alike come from different tables or passages of the source.

Experiments:
PBMCs [1] = assay: Autofluorescence imaging FAD/NADH ratio of PBMCs after antigen stimulation (Example 2); format: cell-based; conditions: peptide solution 10 nM, PBMCs without preculturing
Description: PBMCs having reactivity to a test substance that differs from the reactivity in Example 1 were used here. The PBMCs used here were manufactured by Cellular Technology Limited, and thawed by following a manual provided by the manufacturer. Unlike Example 1, preculturing was skipped and the PBMCs were immediately presented to a test for examining reactivity to a test substance.
The thawed PBMCs were suspended in the CTL-Test Medium at a cell concentration of 7.2×10^6 cells/mL, and 250 μL each was seeded in a 24-well plate. As the test substance, a peptide solution manufactured by Cellular Technology Limited, specifically, CMV pp65 (495-503) Peptide (having a peptide concentration of 10 nM) was used, and 250 μL of this peptide solution was added to each of the wells containing the cells.
As a control cell group to which no test substances were added, cells to which 250 μL each of CTL-Test Medium was added instead of a peptide solution were used. After antigen stimulation, the cells were left to stand for 1 hour to 24 hours in a 5% CO2 incubator. From each well, an entire amount of cell suspension solution was collected and subjected to 5 minutes of centrifugation at 300 G. After the centrifugation, a supernatant was removed and cell pellets were suspended in 1,000 μL of PBS. Further, the resultant cell suspension solution was diluted 5 times with the PBS. Then, 100 μL of the diluted cell suspension solution was seeded onto a cover glass part (having a diameter of 16 mm) of a 35-mm glass bottom dish, and was used for bright field observation and autofluorescence observation.
The subsequent bright-field image acquisition, autofluorescence image acquisition, extraction and analysis of the color information of the autofluorescence images were performed by the same methods as the methods in Example 1.

PBMCs [2] = conditions: PBMCs used in Example 1; confirmed in advance by the manufacturer; cited from earlier work
PBMCs [3] = conditions: PBMCs used in Example 2; confirmed in advance by the manufacturer; cited from earlier work

In the case of “CMV pp65 (495-503) Peptide: peptide solution manufactured by Cellular Technology Limited; peptide that binds directly to an MHC (NLVPMVATV; UniProt P06725 495-503, looked up, fragment)”, the “drop in FAD/NADH ratio compared to PBMCs with no test substance added” value (PBMCs [1]; 1 hour of stimulation) is reported as “reproduced”, the “drop in FAD/NADH ratio compared to PBMCs with no test substance added” value (PBMCs [1]; 4 hours after stimulation) is reported as “hardly observed” and the “drop in FAD/NADH ratio compared to PBMCs with no test substance added” value (PBMCs [1]; period from 4 hours to 24 hours after stimulation) is reported as “substantially no drop”. The “reactivity of the PBMCs to the peptide (ELISpot test)” value (PBMCs [2]) was “react weakly” and the “reactivity of the PBMCs to the peptide (ELISpot test)” value (PBMCs [3]) was “react strongly”.
